Patent publication US20130184294A1, “Pyrimidones for Treatment of Potassium Channel Related Diseases” (Pfizer Inc., priority 2010, published 2013)

Biological target: T1, Kv7.2/7.3 channels (Homo sapiens, UniProt O43525+O43526)
T1 construct: The entire construct for Kv7.2 and Kv7.3 was subcloned into the pIRESneo3 and pIREShygro3 expression vectors; expressed in transfected cells
Assay: Kv7.2/3 channel opening activity, IonWorks planar patch-clamp of K-current at 0 mV
Assay type: cell-based
Conditions: CHO-K1 cells expressing human Kv7.2/7.3; IonWorks Quattro, step from -80 mV to 0 mV, 7-point concentration curves
Description: Biological Assay for Kv7.2/3 Channel Opening Activity
Human Kv7.2 and Kv7.3 clones were obtained from GeneDynamics (Eugene, Oreg.). Both human Kv7.2/pIRESneo3 and human Kv7.3/pIREShygro3 expression vectors were constructed using a combination of fragments amplified from a human hippocampus library (extending from a NheI site near the 5′ end through the stop codon) and synthetic oligonucleotides (extending from the start codon to the BamHI site). The entire construct for Kv7.2 and Kv7.3 was subcloned into the pIRESneo3 and pIREShygro3 expression vectors (Clonetech, Mountain View, Calif.), respectively, using NheI/BamHI sites introduced on either side of the start and stop codons. The construct was sequenced in its entirety to make sure that no mutations were introduced during the amplification and cloning process. Adapted from Wickendon, A D et al., Mol Pharmacol 58(3):591-600, 2000.
Chinese hamster ovary (CHO-K1) cells were transfected with human-Kv7.2 in a pIRESneo3 plasmid DNA vector (Clonetech, Mountain View, Calif.) and the h-Kv7.3 subunit in pIREShygro3 plasmid DNA vector using Lipofectamine-2000™ reagent (InVitrogen, San Diego, Calif.), according to the manufacturers instructions. Cells stably expressing the human Kv7.2 and Kv7.3 constructs were identified by their resistance to 400 ug/ml, geneticin (Gibco #10131-027) and 400 ug/ml, hygromycin-B (Invitrogen #10687-010). Clones were screened for functional expression using the whole-cell, voltage-clamp technique.
To determine if compounds can enhance voltage-dependent K-current in Kv7.2/7.3 channel containing CHO-K1 cells. Planar patch-clamp is used on IonWorks to functionally determine percent enhancement of Kv7.2/7.3-current at 0 mV (compared to retigabine) and potency (EC50) of compounds. Intrinsic activity and/or potency may be important in determining in vivo pharmacological efficacy of the compounds.
Serial dilutions were made in DMSO on an Apricot Personal Pipettor. Compounds were then diluted in external buffer on a 384 well assay plate (final DMSO concentration=0.3%).
Cells used in this assay were CHO-K1 expressing Kv7.2/7.3 channels. Cells were maintained in growth media containing: F-12 (Gibco #11765-054), 10% FBS (Invitrogen 16140-071), 1:100 Glutamax (Gibco #35050-061), 1:100 Penicillin/streptomycin (Gibco #15140-122), 400 ug/ml Geneticin (Gibco #10131-027), 400 ug/ml Hygromycin-B (Invitrogen #10687-010). Cells were grown in T-150 flasks to a confluence of approx. 80%. External recording buffer contained (in mM): NaCl (137), KCl (4), MgCl2 (1), CaCl2 (1.8), HEPES (10), and glucose (10), pH was adjusted to 7.3 with NaOH and osmolarity was adjusted to 300-305 mOsM with sucrose, if necessary. Internal buffer contained (in mM): Kgluconate (120), KCl (20), NaCl (5), MgCl2 (1), CaCl2 (2), HEPES (10), KF (2), and Na2ATP (2). Na2ATP was added to internal buffer right before use and pH was adjusted to 7.2 with KOH. Osmolarity of internal buffer was adjusted to 290-295 mOsM.
Cells were washed 1× with Ca/Mg free PBS and then removed from the plates with a 50:50 mixture of versene (Gibco 15040): 0.25% trypsin-EDTA (Gibco 25200) (4 min), triturated, centrifuged at ˜1000 rpm for 5 min, and resuspended at ˜2.5 million cells/ml in external buffer for recording on IonWorks. Potassium current measurements were made using an IonWorks Quattro instrument (MDS Corp.) using PatchPlate PPC substrates with 64 apertures per well. IonWorks calculated leak current was digitally subtracted from the total current acquired. Potassium current was elicited by stepping from −80 mV to 0 mV (2 sec) was measured in the absence and presence of increasing concentrations (½ log) of unknown compound (7-point concentration curves). Retigabine was run as a positive control and comparator on each PatchPlate PPC. Maximum increase in K current was determined by subtracting the current elicited in external buffer alone wells from the current elicited in wells with compound treatment (both at 0 mV). […]

Structure (SMILES)	EC50 [nM]
CC(C)(C)CC(=O)Nc1c(C2CC2)nc2c(C(F)(F)F)cccn2c1=O [Example 4, N-[2-Cyclopropyl-4-oxo-9-(trifluoromethyl)-4H-pyrido[1,2-a]pyrimidin-3-yl]-3,3-dimethylbutanamide]	137
CC(C)(C)CC(=O)Nc1c(C2CC2)nc2n(c1=O)CCCC2C(F)(F)F (single isomer, unassigned) [Example 5a, N-[2-Cyclopropyl-4-oxo-9-(trifluoromethyl)-6,7,8,9-tetrahydro-4H-pyrido[1,2-a]pyrimidin-3-yl]-3,3-dimethylbutanamide, (−)-enantiomer]	1240
CC(C)Nc1nc2c(C(F)(F)F)cccn2c(=O)c1NC(=O)CC(C)(C)C [Example 7, 3,3-Dimethyl-N-[4-oxo-2-(propan-2-ylamino)-9-(trifluoromethyl)-4H-pyrido[1,2-a]pyrimidin-3-yl]butanamide]	119
CC(C)Nc1nc2c(OC(C)(F)F)cccn2c(=O)c1NC(=O)CC(C)(C)C [Example 9, N-[9-(1,1-Difluoroethoxy)-4-oxo-2-(propan-2-ylamino)-4H-pyrido[1,2-a]pyrimidin-3-yl]-3,3-dimethylbutanamide]	369
Cc1cccn2c(=O)c(NC(=O)CC(C)(C)C)c(NC(C)C)nc12 [Example 3, 3,3-Dimethyl-N-[9-methyl-4-oxo-2-(propan-2-ylamino)-4H-pyrido[1,2-a]pyrimidin-3-yl]butanamide]	450
CC[C@@H](C)Nc1nc2c(C)cccn2c(=O)c1NC(=O)CC(C)(C)C [Example 1, N-{2-[(2R)-Butan-2-ylamino]-9-methyl-4-oxo-4H-pyrido[1,2-a]pyrimidin-3-yl}-3,3-dimethylbutanamide]	168
CC(C)Nc1nc2n(c(=O)c1NC(=O)CC(C)(C)C)CCCC2C(F)(F)F (single isomer, unassigned) [Example 8b, 3,3-Dimethyl-N-[4-oxo-2-(propan-2-ylamino)-9-(trifluoromethyl)-6,7,8,9-tetrahydro-4H-pyrido[1,2-a]pyrimidin-3-yl]butanamide, (+) enantiomer]	412
CC(C)Nc1nc2n(c(=O)c1NC(=O)CC(C)(C)C)CCCC2C(F)(F)F (single isomer, unassigned) [Example 8a, 3,3-Dimethyl-N-[4-oxo-2-(propan-2-ylamino)-9-(trifluoromethyl)-6,7,8,9-tetrahydro-4H-pyrido[1,2-a]pyrimidin-3-yl]butanamide, (−) enantiomer]	382
Cc1cccn2c(=O)c(NC(=O)CC(C)(C)C)c(NC(C)C3CC3)nc12 (single isomer, unassigned) [Example 2a, N-{2-[(1-Cyclopropylethyl)amino]-9-methyl-4-oxo-4H-pyrido[1,2-a]pyrimidin-3-yl}-3,3-dimethylbutanamide, (+)-enantiomer]	227
CC(C)(C)CC(=O)Nc1c(C2CC2)nc2c(OC(C)(F)F)cccn2c1=O [Example 10, N-[2-Cyclopropyl-9-(1,1-difluoroethoxy)-4-oxo-4H-pyrido[1,2-a]pyrimidin-3-yl]-3,3-dimethylbutanamide]	306
CC[C@@H](C)Nc1nc2n(c(=O)c1NC(=O)CC(C)(C)C)CCCC2C (single isomer, unassigned; diastereomer 2) [Example 11b]	942
CC(C)(C)CC(=O)Nc1c(NC2CCC2)nc2c(C(F)(F)F)cccn2c1=O [Example 6, N-[2-(Cyclobutylamino)-4-oxo-9-(trifluoromethyl)-4H-pyrido[1,2-a]pyrimidin-3-yl]-3,3-dimethylbutanamide]	91.5
CC(C)(C)CC(=O)Nc1c(C2CC2)nc2n(c1=O)CCCC2C(F)(F)F (single isomer, unassigned) [Example 5b, N-[2-Cyclopropyl-4-oxo-9-(trifluoromethyl)-6,7,8,9-tetrahydro-4H-pyrido[1,2-a]pyrimidin-3-yl]-3,3-dimethylbutanamide, (+)-enantiomer]	298
Cc1cccn2c(=O)c(NC(=O)CC(C)(C)C)c(NC(C)C3CC3)nc12 (single isomer, unassigned) [Example 2b, N-{2-[(1-Cyclopropylethyl)amino]-9-methyl-4-oxo-4H-pyrido[1,2-a]pyrimidin-3-yl}-3,3-dimethylbutanamide, (−)-enantiomer]	128
CC[C@@H](C)Nc1nc2n(c(=O)c1NC(=O)CC(C)(C)C)CCCC2C (single isomer, unassigned; diastereomer 1) [Example 11a]	307
